Experimental data from patent US20180346430A1, “TRIFLUOROACETYL HYDRAZIDE COMPOUNDS AND METHODS OF PREPARATION AND USES THEREOF” (GUANGHOU MAGPIE PHARMACEUTICALS CO., LTD., priority 2014, published 2018).

What was measured:
[1] = tested on: MEF2 transcription activity in PC12 cells; test: MEF2 luciferase reporter assay in stably transfected PC12 cells; format: cell-based; details: 24 h incubation, **P<0.01, FIG. 9
Method: The PC12 was transfected by cloning the MEF2 reporter gene pGreenFire1TM-MEF2-EF1 lentivector. Stable transfected PC12 cells, as cultured in a conventional manner, were seeded on a 96-well plate with T-006 added in different concentrations, were incubated for 24 h. The activity was measured by the Luciferase reporter assay kit (Promega, USA). […] Compared with the IAA group, **P<0.01.

[2] = tested on: PC12 cells; test: t-BHP-induced mitochondrial membrane potential disorder in PC12 cells (JC-1, flow cytometry); format: cell-based; details: pre-incubated 2 h, t-BHP 100 μM, FIG. 13C
Method: (§1) PC12 cells were seeded on a 96-well plate and inoculated in a 5% CO2 incubator at 37° C. for 24 hours, and then T-006 and TMP (100 M) in different concentration gradients were added to be pre-incubated for 2 hours. Then the medium was aspirated, and 100 μl t-BHP (100 μM) was added to each well except the wells of the control group, and the cells were cultured in an incubator for 24 hours. Hoechst working fluid was added and the number of PC12 cells was observed and counted under fluorescence microscope. […] (B) PC12 cell apoptosis statistics. […] PC12 cells were seeded on a 96-well plate and inoculated in a 5% CO2 incubator at 37° C. for 24 hours, and then T-006 and TMP (100 M) in different concentration gradients were added to be pre-incubated for 2 hours. 2 hours later, 100 μl t-BHP (100 μM) was added to each well except the control group for induction. After completion of the induction, JC-1 working solution was added to each well and mitochondrial membrane potential was monitored and analyzed using flow cytometry. Compared with the control group, ### p<0.001; compared with t-BHP, *p<0.05, **p<0.01 and ***p<0.001.

[3] = tested on: PC12 cells; test: Protective effect on IAA-induced PC12 cell injury (MTT); format: cell-based; details: FIG. 3
Method: PC12 cells were seeded on a 96-well plate and inoculated in a 5% CO2 incubator at 37° C. for 24 hours. Then 100 μl of IAA (50 μM) was added for induction for 2 hours. Two hours later, the medium was aspirated, and each of the compounds (T-006, TMP, Edaravone) was added and the cells were cultured for 24 hours. After 24 hours of incubation, MTT was added to each well. Four hours later, the absorbance was measured at 570 nm using a microplate reader. […] Compared with the IAA group, ****P<0.0001.

[4] = tested on: PC12 cells; test: Differentiation of PC12 cells into neurons with synapse growth; format: cell-based; details: 72 h, **P<0.01 vs control group, FIG. 11
Method: PC12 cells were seeded on 6-well plate and inoculated in a 5% CO2 incubator at 37° C. for 24 hours. Control group was unchanged; NGF control group: serum-free F-12K+50 ng/mL NGF; drug treatment group: serum-free F-12K with different concentrations of T-006. After 72 hours of incubation, picture was taken under an inverted microscope with 5 shoots at random for each hole. If the cell synapse length is more than 2 times the cell, it can be regarded as cell differentiation and synapse formation. […] Compared with the control group, **P<0.01.

[5] = tested on: Scopolamine-induced memory impairment in mice; test: Scopolamine-induced memory impairment in mice, water maze test; format: in vivo, Kunming mice; details: for Improvement of scopolamine-induced memory impairment: water maze, **p<0.01 vs scopolamine model group, FIG. 10A, 10B
Method: In this example, Kunming mice were selected and divided into normal control group (Ctrl), Scopolamine group (Sco), Donepezil treatment group (Sco+3 mg/kg donepezil), 1 and 10 mg T-006 treatment group (Sco+1 mg/kg T-006 and Sco+10 mg/kg T-006). Intragastric administration was performed for two weeks, and after the final administration water maze test was conducted for 4 days. Thirty minutes before the test, abdominal injection of scopolamine (1 mg/kg) and model were performed. On day 5, space search test was conducted, and data were expressed as Mean±SD (n=9 per group).

[6] = tested on: PC12 cells; test: Protective effect on t-BHP-induced PC12 cell injury (MTT); format: cell-based; details: FIG. 4
Method: PC12 cells were seeded on a 96-well plate and inoculated in a 5% CO2 incubator at 37° C., for 24 hours. Then each compound (T-006, TMP, Edaravone) was added in different concentration gradients to pre-incubated for 2 hours. Two hours later, the medium was aspirated, and 100 μl t-BHP (100 μM) was added to each well except those of the control group, then the cells were cultured in an incubator for 24 hours. Four hours later, MTT was added into each of the wells, and the absorbance was measured at 570 nm using a microplate reader. […] Compared with t-BHP group, ****P<0.0001.

[7] = tested on: Cortical neurons; test: Protective effect on t-BHP-induced cortical neuronal injury (MTT); format: cell-based, SD fetal rat; details: FIG. 6
Method: Cortical neurons of E16-18 days SD fetal rat were seeded on a 96-well plate and inoculated in a 5% CO2 incubator at 37° C. for 8 days. […] The neurons were set to incubator to cultivate for 24 hours, and then MTT was added to each well. Four hours later, the absorbance value was measured at 570 nm using a microplate reader. […] Compared with the t-BHP group, ****P<0.0001.

[8] = tested on: PC12 cells; test: t-BHP-induced apoptosis in PC12 cells (Hoechst staining); format: cell-based; details: pre-incubated 2 h, t-BHP 100 μM 24 h, FIG. 13A, 13B
Method: as §1

[9] = tested on: Primary cerebellar granule cells; test: Protective effect on glutamate-induced cerebellar granule injury (MTT); format: cell-based, SD fetal rat; details: pre-incubated 2 h, glutamate 75 μM 24 h, concentration-dependent, **P<0.01 vs glutamate group, FIG. 7
Method: (§2) Primary cerebellar granule cells, extracted from 7-8 day, 15-20 g SD fetal rat, were seeded on a 96-well plate and inoculated in a 5% CO2 incubator at 37° C. for 8 days. On day 8, 90 μL of the compound (T-006) was added with different concentration gradients, then the cells were set to an incubator to cultivate for 2 hours. Then 10 μL of glutamate (final concentration of 75 μM) was added to each well except those of the control group. The cells were set to incubator to cultivate for 24 hours, and then MTT was added to each well. Four hours later, the absorbance value was measured at 570 nm using a microplate reader. […] Compared with the glutamate group, **P<0.01.

[10] = tested on: Primary cerebellar granule cells; test: Protective effect on MPP+-induced cerebellar granule injury (MTT); format: cell-based, SD fetal rat; details: pre-incubated 2 h, MPP+ 35 μM 24 h, concentration-dependent, **P<0.01 vs MPP+ group, FIG. 8
Method: as §2, with “days,” for “day,”, “MPP^+” for “glutamate”, “35” for “75”

[11] = tested on: Cortical neurons; test: Protective effect on IAA-induced cortical neuronal injury (MTT); format: cell-based, SD fetal rat; details: FIG. 5
Method: Cortical neurons of E16-18 day SD fetal rat were seeded on a 96-well plate and inoculated in a 5% CO2 incubator at 37° C. for 8 days. On day 8, each of the compounds (T-006, TMP, Edaravone) was added with different concentration gradients, and 50 μl IAA (40 μM) was added to each well except those of the control group. Then the neurons were set to incubator to cultivate for 24 hours, and then MTT was added to each well. Four hours later, the absorbance was measured at 570 nm using a microplate reader. […] Compared with the IAA group, ****P<0.0001.

[12] = tested on: PC12 cells; test: t-BHP-induced ROS and RNS in PC12 cells (DCF-DA, HFP, DAF-FM, DHR123 probes); format: cell-based; details: pre-incubated 2 h, t-BHP 100 μM 6 h; total ROS, hydroxyl radicals, nitric oxide radicals, peroxynitrite; FIG. 14A-14D
Method: PC12 cells were seeded on 6-well plate and inoculated in a 5% CO2 incubator at 37° C. for 24 hours, and then T-006 and TMP (100 M) in different concentration gradients were added to be pre-incubated for 2 hours. Then the medium was aspirated, and 100 μl t-BHP (100 μM) was added to each well except the wells of the control group, and the cells were cultured in an incubator for 6 hours. Consequently, DCF-DA probes, HFP probes, DAF-FM probes and DHR123 probes were added respectively to determine the total ROS, hydroxyl radicals, nitric oxide radicals and peroxynitrite. (A) DCF-DA probe for determining intracellular total ROS. (B) HFP probe for determining intracellular hydroxyl radicals. (C) DAF-FM probe for determining nitric oxide free radicals. (D) DHR123 probe for determining intracellular peroxynitrite. Compared with the control group, ### p<0.001; compared with t-BHP, *p<0.05, **p<0.01 and ***p<0.001.

[13] = comparison with TMP and Edaravone

Cc1ccc(N(/N=C/c2nc(C)c(C)nc2C)C(=O)C(F)(F)F)c(C)c1 [T-006]
MEF2 transcriptional activity in PC12 cells [1]: significantly activates ME12 transcriptional activity | t-BHP-induced mitochondrial membrane potential disorder in PC12 cells [2]: improved t-BHP-induced mitochondrial membrane potential disorder | Protective effect on IAA-induced PC12 cell injury ([3]; IAA 50 μM 2 h, then compound 24 h, MTT, ****P<0.0001 vs IAA group): significant protective effect | Protective effect on IAA-induced PC12 cell injury compared with TMP and Edaravone [3, 13]: much stronger than that of the parent compound TMP and Edaravone | Differentiation of PC12 cells into neurons, synapse formation and growth ([4]; serum-free F-12K, different concentrations, concentration-dependent): significantly promote differentiation of PC12 cells into neurons, synapse formation and growth | Improvement of scopolamine-induced memory impairment ([5]; 1 mg/kg intragastric for two weeks): significantly improved the memory impairment induced by scopolamine | Improvement of scopolamine-induced memory impairment compared with 3 mg/kg donepezil group ([5]; 10 mg/kg T-006 vs 3 mg/kg donepezil, $p<0.05): significantly better than 3 mg/kg donepezil group | Improvement of scopolamine-induced memory impairment ([5]; 10 mg/kg intragastric for two weeks): significantly improved the memory impairment induced by scopolamine | Protective effect on t-BHP-induced PC12 cell injury compared with TMP or Edaravone ([6]; comparison with TMP or Edaravone): much stronger than that of the parent compound TMP or Edaravone | Protective effect on t-BHP-induced PC12 cell injury ([6]; pre-incubated 2 h, t-BHP 100 μM 24 h, MTT, ****P<0.0001 vs t-BHP group): significant protective effect | Protective effect on t-BHP-induced cortical neuronal injury ([7]; 24 h, MTT, ****P<0.0001 vs t-BHP group): significant protective effect | Protective effect on t-BHP-induced cortical neuronal injury compared with TMP and Edaravone [7, 13]: much stronger than that of the parent compound TMP and Edaravone | t-BHP-induced PC12 cell apoptosis [8]: reduced t-BHP-induced PC12 cell apoptosis | Protective effect on glutamate-induced primary cerebellar granule injury [9]: significant protective effect | Protective effect on MPP+-induced primary cerebellar granule injury [10]: significant protective effect | Protective effect on IAA-induced cortical neuronal injury ([11]; IAA 40 μM, 24 h, MTT, ****P<0.0001 vs IAA group): significant protective effect | Protective effect on IAA-induced cortical neuronal injury compared with TMP and Edaravone [11, 13]: much stronger than that of the parent compound TMP and Edaravone | Elevation of ROS and RNS in t-BHP-induced PC12 cells [12]: Reduced the Elevation of ROS and RNS

COc1cc2c(cc1OC)C(=O)C(CC1CCN(Cc3ccccc3)CC1)C2 (centres unmarked) [donepezil, reference compound]
Improvement of scopolamine-induced memory impairment ([5]; 3 mg/kg intragastric for two weeks): significantly improved the memory impairment induced by scopolamine

NGF: positive control NGF, 50 ng/mL, in the PC12 differentiation test
Differentiation of PC12 cells into neurons, synapse formation and growth ([4]; serum-free F-12K + 50 ng/mL NGF, positive control): significantly promote differentiation of PC12 cells into neurons, synapse formation and growth
